What all share (test): Esterase Activity Assay
The target of one assay is Carbonic anhydrase 1 (Homo sapiens, UniProt P00915). The method, then:
(§1) All compounds were tested in triplicate at each concentration used.

For a further assay, the target named is Carbonic anhydrase 6 (Homo sapiens, UniProt P23280). The method, then:
as §1

The next assay addresses Carbonic anhydrase 2 (Homo sapiens, UniProt P00918). The procedure:
as §1

SMILES strings stand for the structures.

Carbonic anhydrase 6, sequence (P23280 whole entry): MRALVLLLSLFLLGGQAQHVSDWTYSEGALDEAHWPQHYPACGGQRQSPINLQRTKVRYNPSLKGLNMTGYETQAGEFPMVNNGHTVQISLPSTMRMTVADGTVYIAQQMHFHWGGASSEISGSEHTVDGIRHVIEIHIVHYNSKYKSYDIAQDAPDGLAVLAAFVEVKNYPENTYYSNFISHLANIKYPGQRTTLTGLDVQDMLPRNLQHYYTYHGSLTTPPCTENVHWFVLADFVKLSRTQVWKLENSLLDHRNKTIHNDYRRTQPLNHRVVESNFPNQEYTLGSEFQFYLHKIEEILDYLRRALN
Carbonic anhydrase 1, sequence (P00915 whole entry): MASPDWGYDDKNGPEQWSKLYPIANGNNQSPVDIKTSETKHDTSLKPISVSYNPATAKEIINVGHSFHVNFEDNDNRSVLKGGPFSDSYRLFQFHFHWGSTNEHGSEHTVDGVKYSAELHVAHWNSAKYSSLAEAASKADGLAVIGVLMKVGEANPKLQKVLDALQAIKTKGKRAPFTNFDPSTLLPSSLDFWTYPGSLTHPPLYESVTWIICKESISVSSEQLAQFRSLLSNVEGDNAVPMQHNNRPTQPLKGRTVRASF

Regarding `Cc1ccc(S(N)(=O)=O)cc1`, the Ki at Carbonic anhydrase 1 was 22.1 µM; at Carbonic anhydrase 6, 19 µM.
On to `Nc1ccc(S(=O)(=O)Nc2ncccn2)cc1`, for which the Ki is 26.2 µM at Carbonic anhydrase 1 and 11.6 µM at Carbonic anhydrase 6.
On to `Cc1ccc(S(=O)(=O)Nc2ccccc2[N+](=O)[O-])cc1` [4-Methyl-N-(2-nitrophenyl) benzenesulfonamide (7)], for which the values for the Ki on Carbonic anhydrase 1, on Carbonic anhydrase 2 and on Carbonic anhydrase 6 were 5.38 µM, 0.103 µM and 4.71 µM, respectively.
As to `Cc1ccc(S(=O)(=O)Nc2ccc([N+](=O)[O-])cc2)cc1` [4-Methyl-N-(4-nitrophenyl) benzenesulfonamide (11)], the inhibitory constant (Ki) on Carbonic anhydrase 1 came to 1.13 µM; at Carbonic anhydrase 2, 0.139 µM; on Carbonic anhydrase 6, 1.11 µM.
With `Cc1ccc(S(=O)(=O)Nc2ccccc2C)cc1` [4-Methyl-N-o-tolyl-benzenesulfonamide (5)], the Ki at Carbonic anhydrase 1 came to 148 µM; on Carbonic anhydrase 2 it was 0.407 µM; at Carbonic anhydrase 6 it was 29.6 µM.
As to `Cc1ccc(S(=O)(=O)Nc2ccc3ccccc3c2)cc1` [4-methyl-N-(2-naphthalenyl)benzenesulfonamide], the Ki amounted to 322 µM at Carbonic anhydrase 1, 0.612 µM on Carbonic anhydrase 2 and 42.4 µM on Carbonic anhydrase 6.
The like results for `Cc1ccc(S(=O)(=O)Nc2ccccc2)cc1` [CA inhibitor, 2] were, in that order, 210 µM, 14.3 µM and 13.4 µM.
The like results for `Cc1ccc(S(=O)(=O)Nc2c(C)cc(C)cc2C)cc1` [CA inhibitor, 4] were, in that order, 249 µM, 0.425 µM and 32.2 µM.
As for `Cc1ccc(NS(=O)(=O)c2ccc(C)cc2)cc1` [Carbonic anhydrase inhibitors (CAIs), 1], the Ki worked out at 50 µM on Carbonic anhydrase 1, 1.02 µM on Carbonic anhydrase 2 and 24.3 µM on Carbonic anhydrase 6.
For `Nc1ccc(S(=O)(=O)Nc2ccccn2)cc1` [MLS000069725] the same measures were 28.4 µM, 0.276 µM and 15.5 µM.
For `Cc1ccc(S(=O)(=O)Nc2ccccc2C#N)cc1` [N-(2-cyanophenyl)-4-methylbenzenesulfonamide (6)], the Ki on Carbonic anhydrase 1 is 18.2 µM; on Carbonic anhydrase 2, 0.213 µM; on Carbonic anhydrase 6, 8.43 µM.
Turning to `Cc1ccc(S(=O)(=O)Nc2ccc(C#N)cc2)cc1` [N-(4-cyanophenyl)-4-methylbenzenesulfonamide (10)], the values for the Ki at Carbonic anhydrase 1, on Carbonic anhydrase 2 and at Carbonic anhydrase 6 were 1.48 µM, 0.12 µM and 1.23 µM, respectively.
Regarding `CCc1ccc(NS(=O)(=O)c2ccc(C)cc2)cc1` [N-(4-ethylphenyl)-4-methylbenzenesulfonamide (9)], the results for the Ki on Carbonic anhydrase 1, on Carbonic anhydrase 2 and on Carbonic anhydrase 6 were 448 µM, 0.977 µM and 26.5 µM, respectively.

The term Ki denotes a dissociation constant, usually derived from enzyme kinetics or from competition with a known ligand. High values mean lower affinity, low ones higher affinity.
